Test system: ex vivo perfused rabbit heart (ventricular myocytes), Adgal adenovirus gene transfer
Assay type: cell-based

| SMILES | percentage of infected cells | percentage of infected cells in the absence of VEGF | infection efficiency | pretreatment (exposure) time required for the enhancement of infection [min] |
| --- | --- | --- | --- | --- |
| CCCc1nn(C)c2c(=O)[nH]c(-c3cc(S(=O)(=O)N4CCN(C)CC4)ccc3OCC)nc12 [Sildenafil, 5-[2-ethoxy-5-(4-methylpiperazin-1-ylsulphonyl)phenyl]-1-methyl-3-n-propyl-1,6-dihydro-7H-pyrazolo[4,3d]pyrimidin-7-one] | increased the percentage of infected cells | No change | – | – |
| CCCOc1ccccc1-c1nc2nn[nH]c2c(=O)[nH]1 [zaprinast] | increased the percentage of infected cells | No change | – | – |
| Nc1nc2c(nc(Br)n2[C@@H]2O[C@@H]3COP(=O)(O)O[C@H]3[C@H]2O)c(=O)[nH]1 [8-Br-cGMP] | – | – | replicates the increase in infection efficiency | 2 |
| NCCc1c[nH]c2ccc(O)cc12 [serotonin] | – | – | – | 15 |
| O=[N+]([O-])OCC(CO[N+](=O)[O-])O[N+](=O)[O-] [nitroglycerin] | – | – | replicates the increase in infection efficiency | 2 |

Source: patent publication US6992070B2 (priority 2000, dated 2006)
